# Earlier results as cited in patent EP0072762B1, “Fluorinated diaminoalkene derivatives” (priority 1981, dated 1983).
# Tested on: tumor
# Conditions: administered intravenously once or twice a week, cited from earlier work
smiles,measurement,setting,value
"CC(C=NNC(=N)N)=NNC(=N)N [MGBG, methylglyoxal bis(guanylhydrazone)]",complete disappearance of the diseases,65 treated patients,two of the 65 treated patients
same,regression of the tumor,"patients in advanced stages of various carcinomas, lymphoma, leukemia etc.",measurable regression of the tumor in many of the patients treated
